Results: ChEMBL document CHEMBL3112460, “Successful reduction of off-target hERG toxicity by structural modification of a T-type calcium channel blocker” (Bioorg Med Chem Lett, 2014)
pIC50: −log10 of the molar value.

Legend:
Plasma = test: Metabolic stability in rat plasma after 2 hrs; format: ADME, cell-free
[1] = Half life in human microsomes; format: ADME, Microsome
[2] = Half life in Sprague-Dawley rat at 10 mg/kg, iv; format: ADME, organism-based; design: dose 10 mg/kg, route intravenous; details: in vivo
[3] = AUC (0 to infinity) in Sprague-Dawley rat at 10 mg/kg, iv; format: ADME, organism-based; design: time infinity, dose 10 mg/kg, route intravenous; details: plasma
[4] = Bioavailability in Sprague-Dawley rat at 10 mg/kg, […]; format: ADME, organism-based; details: in vivo
[5] = Tmax in Sprague-Dawley rat at 10 mg/kg, po; format: ADME, organism-based; design: dose 10 mg/kg, route oral; details: in vivo
[6] = Cmax in Sprague-Dawley rat at 10 mg/kg, po; format: ADME, organism-based; design: dose 10 mg/kg, route oral; details: in vivo
[7] = Half life in Sprague-Dawley rat at 10 mg/kg, po; format: ADME, organism-based; design: dose 10 mg/kg, route oral; details: in vivo
[8] = AUC (0 to infinity) in Sprague-Dawley rat at 10 mg/kg, po; format: ADME, organism-based; design: time infinity, dose 10 mg/kg, route oral; details: plasma
HEK293 [9] = test: Selectivity ratio of IC50 for L-type calcium channel subunit-1C (unknown origin) to IC50 for T-type calcium channel subunit alpha-1G (unknown origin) expressed in HEK293 cells; format: cell-based; details: Homo sapiens
[10] = biological target: Voltage-dependent L-type calcium channel subunit alpha-1C (Homo sapiens, UniProt Q13936); test: Inhibition of L-type calcium channel subunit-1C (unknown origin) expressed in HEK293 cells by whole-cell patch clamp method; format: cell-based
HEK293 [11] = test: Selectivity ratio of IC50 for human ERG to IC50 for T-type calcium channel subunit alpha-1G (unknown origin) expressed in human HEK293 cells; format: cell-based
[12] = biological target: Voltage-gated inwardly rectifying potassium channel KCNH2 (Homo sapiens, UniProt Q12809); test: Inhibition of human ERG by whole-cell patch clamp method
[13] = biological target: Voltage-dependent T-type calcium channel subunit alpha-1G (Homo sapiens, UniProt O43497); test: Inhibition of T-type calcium channel subunit alpha-1G (unknown origin) expressed in HEK293 cells assessed as inactivation of channel current at holding potential of 30 to 100mV by whole-cell patch clamp method; format: cell-based
Voltage-dependent T-type calcium channel subunit alpha-1G, sequence (O43497 whole entry): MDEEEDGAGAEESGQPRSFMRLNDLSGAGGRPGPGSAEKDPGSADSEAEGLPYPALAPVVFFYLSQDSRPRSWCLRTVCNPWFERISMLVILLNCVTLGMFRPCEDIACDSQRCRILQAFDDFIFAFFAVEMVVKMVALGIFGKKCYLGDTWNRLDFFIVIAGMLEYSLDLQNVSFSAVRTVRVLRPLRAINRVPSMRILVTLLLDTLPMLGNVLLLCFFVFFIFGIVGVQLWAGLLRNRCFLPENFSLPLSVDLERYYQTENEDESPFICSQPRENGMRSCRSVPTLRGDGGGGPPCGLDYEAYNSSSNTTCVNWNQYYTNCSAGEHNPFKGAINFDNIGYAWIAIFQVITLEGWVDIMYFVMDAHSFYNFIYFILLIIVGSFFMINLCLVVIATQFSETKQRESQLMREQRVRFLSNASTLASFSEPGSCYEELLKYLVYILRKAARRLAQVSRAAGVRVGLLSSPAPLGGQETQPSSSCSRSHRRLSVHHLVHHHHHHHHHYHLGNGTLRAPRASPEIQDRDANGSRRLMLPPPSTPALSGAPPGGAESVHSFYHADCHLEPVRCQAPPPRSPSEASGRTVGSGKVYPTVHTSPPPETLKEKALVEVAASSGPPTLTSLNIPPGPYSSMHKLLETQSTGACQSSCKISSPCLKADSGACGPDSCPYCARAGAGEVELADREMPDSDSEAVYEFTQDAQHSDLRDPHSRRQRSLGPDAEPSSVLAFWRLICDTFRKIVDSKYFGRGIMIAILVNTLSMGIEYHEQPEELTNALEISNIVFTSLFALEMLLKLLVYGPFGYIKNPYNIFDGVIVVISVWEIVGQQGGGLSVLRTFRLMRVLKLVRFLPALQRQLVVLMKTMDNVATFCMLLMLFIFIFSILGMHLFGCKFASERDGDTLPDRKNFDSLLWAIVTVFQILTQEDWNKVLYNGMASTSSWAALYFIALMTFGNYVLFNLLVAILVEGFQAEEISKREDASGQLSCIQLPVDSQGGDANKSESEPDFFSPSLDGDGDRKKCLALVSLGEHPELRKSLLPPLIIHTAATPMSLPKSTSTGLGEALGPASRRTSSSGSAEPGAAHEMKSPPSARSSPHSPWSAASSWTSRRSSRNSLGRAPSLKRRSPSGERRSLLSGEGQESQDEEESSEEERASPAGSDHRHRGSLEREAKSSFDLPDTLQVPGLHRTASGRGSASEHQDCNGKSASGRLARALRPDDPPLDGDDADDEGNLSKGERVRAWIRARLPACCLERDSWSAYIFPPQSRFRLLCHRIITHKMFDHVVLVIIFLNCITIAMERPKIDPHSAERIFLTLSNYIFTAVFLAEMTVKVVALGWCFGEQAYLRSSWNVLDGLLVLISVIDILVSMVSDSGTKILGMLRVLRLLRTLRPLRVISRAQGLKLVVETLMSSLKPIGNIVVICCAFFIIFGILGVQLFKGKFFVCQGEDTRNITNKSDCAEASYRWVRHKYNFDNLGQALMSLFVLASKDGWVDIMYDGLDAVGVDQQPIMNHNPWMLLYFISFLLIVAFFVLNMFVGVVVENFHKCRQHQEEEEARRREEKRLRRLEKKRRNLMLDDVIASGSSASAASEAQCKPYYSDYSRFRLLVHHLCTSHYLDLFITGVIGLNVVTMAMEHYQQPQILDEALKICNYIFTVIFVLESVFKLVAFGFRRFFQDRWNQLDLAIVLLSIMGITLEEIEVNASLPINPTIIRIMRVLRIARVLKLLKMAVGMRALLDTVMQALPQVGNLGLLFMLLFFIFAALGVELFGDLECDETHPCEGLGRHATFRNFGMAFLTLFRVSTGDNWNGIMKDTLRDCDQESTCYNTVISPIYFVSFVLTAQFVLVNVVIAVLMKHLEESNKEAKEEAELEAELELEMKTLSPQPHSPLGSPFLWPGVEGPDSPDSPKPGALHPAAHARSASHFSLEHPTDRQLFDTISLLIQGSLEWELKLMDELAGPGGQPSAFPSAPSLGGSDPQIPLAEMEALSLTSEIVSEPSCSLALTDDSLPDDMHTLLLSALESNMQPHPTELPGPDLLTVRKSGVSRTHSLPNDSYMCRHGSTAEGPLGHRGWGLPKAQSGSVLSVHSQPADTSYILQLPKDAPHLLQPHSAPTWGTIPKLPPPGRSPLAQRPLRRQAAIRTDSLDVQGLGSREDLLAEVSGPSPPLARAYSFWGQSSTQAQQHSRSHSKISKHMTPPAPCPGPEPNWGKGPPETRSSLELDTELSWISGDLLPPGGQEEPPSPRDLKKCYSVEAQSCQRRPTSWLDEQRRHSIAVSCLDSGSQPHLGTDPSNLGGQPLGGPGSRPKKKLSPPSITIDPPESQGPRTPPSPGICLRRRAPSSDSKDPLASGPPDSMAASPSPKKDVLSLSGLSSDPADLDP

Voltage-gated inwardly rectifying potassium channel KCNH2, sequence (Q12809 whole entry): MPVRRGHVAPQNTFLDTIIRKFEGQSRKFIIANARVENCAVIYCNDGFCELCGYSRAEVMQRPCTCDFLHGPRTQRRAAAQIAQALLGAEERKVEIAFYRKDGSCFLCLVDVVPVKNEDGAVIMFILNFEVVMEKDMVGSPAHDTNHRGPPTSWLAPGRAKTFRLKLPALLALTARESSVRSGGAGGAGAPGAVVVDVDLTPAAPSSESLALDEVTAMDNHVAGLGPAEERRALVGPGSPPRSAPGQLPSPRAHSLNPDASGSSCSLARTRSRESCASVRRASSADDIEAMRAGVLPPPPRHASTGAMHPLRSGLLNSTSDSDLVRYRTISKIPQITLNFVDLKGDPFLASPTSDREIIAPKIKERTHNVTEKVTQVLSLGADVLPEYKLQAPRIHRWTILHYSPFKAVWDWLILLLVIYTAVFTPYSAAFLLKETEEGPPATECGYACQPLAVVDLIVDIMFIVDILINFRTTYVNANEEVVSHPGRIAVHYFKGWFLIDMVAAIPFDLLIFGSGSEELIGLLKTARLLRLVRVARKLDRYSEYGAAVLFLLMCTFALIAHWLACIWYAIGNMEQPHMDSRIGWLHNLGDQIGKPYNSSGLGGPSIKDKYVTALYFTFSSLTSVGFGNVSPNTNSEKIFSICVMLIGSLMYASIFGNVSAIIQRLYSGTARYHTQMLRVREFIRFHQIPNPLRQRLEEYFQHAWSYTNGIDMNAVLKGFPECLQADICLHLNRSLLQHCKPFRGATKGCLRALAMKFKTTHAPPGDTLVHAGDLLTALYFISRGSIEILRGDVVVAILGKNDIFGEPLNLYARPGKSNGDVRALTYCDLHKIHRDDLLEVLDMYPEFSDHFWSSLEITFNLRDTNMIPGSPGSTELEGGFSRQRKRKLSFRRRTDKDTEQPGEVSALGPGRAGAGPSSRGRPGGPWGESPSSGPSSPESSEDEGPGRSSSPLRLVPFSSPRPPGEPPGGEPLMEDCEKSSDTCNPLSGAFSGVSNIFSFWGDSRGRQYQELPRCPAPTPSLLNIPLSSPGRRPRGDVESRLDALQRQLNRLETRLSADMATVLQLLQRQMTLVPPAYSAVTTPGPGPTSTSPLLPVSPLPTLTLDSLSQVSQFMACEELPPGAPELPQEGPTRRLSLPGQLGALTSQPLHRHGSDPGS

| Compound | Stability (Plasma) | half-life [1] | half-life [2] | AUC(0-inf) [3] | bioavailability [4] | Tmax [5] | Cmax [6] | half-life [7] | AUC(0-inf) [8] | Ratio IC50 (HEK293 [9]) | pIC50 [10] | Ratio IC50 (HEK293 [11]) | pIC50 [12] | pIC50 [13] |
| --- | --- | --- | --- | --- | --- | --- | --- | --- | --- | --- | --- | --- | --- | --- |
| COC(=O)C(CCCN(C)CCCc1nc2ccccc2[nH]1)(c1ccc(Br)cc1)C(C)C (stereo unspecified) | Stable | 2 h | 1.3 h | 906 ng·h/mL | – | – | – | – | – | – | – | – | – | – |
| COC(=O)C(CCC(=O)N(C)CCCc1nc2ccccc2[nH]1)(c1ccc(Br)cc1)C(C)C (stereo unspecified) | Stable | 4 h | 1.76 h | 9620 ng·h/mL | 60.3% | 0.5 h | 4580 ng/mL | 0.795 h | 5800 ng·h/mL | 96.8 | 5.27 | > 220 | 4.90 | 7.25 |
| COC(=O)C(CCCN1CCC(c2ccccc2OC)CC1)(c1ccc(Br)cc1)C(C)C (stereo unspecified) | – | – | – | – | – | – | – | – | – | – | – | – | – | 5.58 |
| CC(C)C(CCCN(C)CCCc1nc2ccccc2[nH]1)(C(=O)O)c1ccc(Br)cc1 (stereo unspecified) | – | – | – | – | – | – | – | – | – | – | – | – | 5.63 | 5.87 |
| COC(=O)C(CCC(=O)N1CCN(c2ccccc2OC)CC1)(c1ccc(Br)cc1)C(C)C (stereo unspecified) | Stable | 3.67 h | 4.9 h | 5080 ng·h/mL | 9.2% | 0.5 h | 218 ng/mL | 2.21 h | 467 ng·h/mL | – | 5.23 | – | – | 6.18 |
| COc1ccccc1N1CCN(CCCC(C(=O)O)(c2ccc(Br)cc2)C(C)C)CC1 (stereo unspecified) | – | – | – | – | – | – | – | – | – | – | – | – | 5.40 | 5.49 |
| COC(=O)C(CCCN1CC=C(c2ccccc2OC)CC1)(c1ccc(Br)cc1)C(C)C (stereo unspecified) | – | – | – | – | – | – | – | – | – | – | – | – | 5.90 | 5.49 |
